{"source": "patent US20150087627A1", "about": "“COMBINATION OF KINASE INHIBITORS AND USES THEREOF” (Intellikine LLC, priority 2011, published 2015)", "key": {"[1]": {"tested_on": "MDA-MB-361 (PI3Kα/HER2 carcinoma) tumors", "experiment": "In vivo efficacy in xenogenic mouse model of breast cancer", "design": "species or system Nude mice", "conditions": "60 mg/kg, FIG. 9 left panel", "protocol": "Blood glucose was monitored periodically following administration of treatment.\nTreatment of tumors (MDA-MB-361) with compounds was discontinued on Day 30. Tumors were measured every 2-5 days."}, "pAKT in PC3 cells": {"tested_on": "pAKT in PC3 cells", "experiment": "Inhibition of PI3K pathway, pAKT Western blot", "format": "cell-based, human", "conditions": "PC3 model, FIG. 7", "protocol": "Cells comprising one or more mutations in PI3Kα, including but not limited to breast cancer cells (e.g., MDA-MB-361, T47D, SKOV-3), and cells comprising one or more mutations in PTEN including but not limited to prostate cancer cells (e.g., PC3), are typically grown in cell growth media such as DMEM supplemented with fetal bovine serum and/or antibiotics, and grown to confluency. Cells are then treated with various concentrations of test compound for about 2 hours and subsequently lysed in cell lysis buffer. Lysates are subjected to SDS-PAGE followed by Western blot analysis to detect downstream signaling markers, including but not limited to pAKT(S473), pAKT(T308), pS6, and p4E-BP1."}}}
{"compound": "Nc1nc2cc(-c3ccc4ncc(C(=O)N5CCOCC5)n4c3)ccc2o1", "note": "[Compound A]", "values": [{"measurement": "tumor weight", "setting": "[1]", "value": "reduction in tumor weight"}]}
{"compound": "CC(C)n1nc(-c2ccc3oc(N)nc3c2)c2c(N)ncnc21", "note": "[Compound B]", "values": [{"measurement": "inhibition of Akt phosphorylation, serine 473 vs threonine 308", "setting": "pAKT in PC3 cells", "value": "differential inhibition of Akt phosphorylation at serine 473 over threonine 308"}]}
